Measurements reported in publication PMC11597202, “Novel Thiazole-Fused [4,5-g] or [5,4-g]Quinazolin-8-ones and Their Quinazoline Analogues: Synthesis and Biological Evaluation” (Pharmaceuticals, 2024).

Key:
[1] = In vitro cytotoxic assay, PC-3; assay type: cell-based; conditions: human, PC-3 cells (prostate cancer cell line); further: 0.1-25 µM tested
Method: (§1) Skin normal fibroblastic cells were purchased from Lonza (Basel, Switzerland). […] All culture media were supplemented by 10% of FBS, 1% of penicillin–streptomycin and 2 mM glutamine.
(§2) Chemicals were solubilized in DMSO at a concentration of 10 mM (stock solution) and diluted in culture medium to the desired final concentrations. […] Cells were plated in 96-well plates (4000 cells/well). Twenty-four hours after seeding, the cells were exposed to chemicals. […] Image acquisition and analysis were performed using a Cellomics ArrayScan VTI/HCS Reader (ThermoScientific, Les Ulis, France). The survival percentages were calculated as the percentage of cell number after compound treatment over cell number after DMSO treatment. The relative IC50 values were calculated using the curve fitting XLfit 5.5.0.5 (idbs) integrated in Microsoft Excel as an add-on.
(§3) 4.3.1. Cell culture. Skin normal fibroblastic cells are purchased from Lonza (Basel, Switzerland). Huh7- […]
(§4) from ATCC (American Type Culture Collection). […]
(§5) supplemented by 10% of FBS, 1% of penicillin-streptomycin and 2 mM glutamine.
(§6) 4.3.2. Cytotoxic assay. Chemicals were solubilized in DMSO at a concentration of 10 mM (stock solution) and diluted in culture medium to the desired final concentrations. The dose effect cytotoxic assays (IC50 determination) were performed by increasing the concentrations of each chemical (final well […]
(§7) Cells were plated in 96-well plates
(§8) (4000 cells/well). Twenty-four hours after seeding, cells were exposed to chemicals. After 48h of treatment, cells were washed in PBS and fixed in cooled 90% ethanol/5% acetic acid for 20 min and the […]
(§9) Image acquisition and analysis were performed using a Cellomics ArrayScan VTI/HCS Reader (ThermoScientific). The survival percentages were calculated as the percentage of cell number after compound treatment over cell number after DMSO treatment. The relative IC50 were calculated using the curve fitting XLfit 5.5.0.5 (idbs) integrated in Microsoft Excel as an add-on. The 4 Parameter Logistic Model or Sigmoidal Dose-Response Model describing the sigmoid-shaped response pattern was used (fit = (A+[(B-A)/(1+[(C/x)^D])]) where fit is the response and X is the tested concentration of the compound. The lower asymptote is A (also referred to as the bottom of the curve or lower plateau or the min) and the upper asymptote is B (also referred to as the top of the curve or upper plateau or the max). The slope of the linear part of the curve is described by the factor D. The parameter C is the concentration corresponding to the response midway between A and B. C is called “relative IC50” because it refers to the maximum response obtained by a […]
(§10) The results are represented as the mean ± standard error (SE) calculated from at least three independent experiments.

seven tumor cell lines = experiment: In vitro cytotoxic assay, whole panel of cancer cell lines; assay type: cell-based, human; conditions: 48 h; for IC50: Homo sapiens, lowest to highest IC50 among the seven cancer cell lines, read-out: IC50 span over the cancer cell lines
Method: as §1, §2, §3, §4, §5, §6, §7, §8, §9, §10

[2] = In vitro cytotoxic assay, MDA-MB-468; assay type: cell-based; conditions: human, MDA-MB-468 cells (breast cancer cell line); read-out: In vitro cytotoxic activity IC50, MBA-MB4-68
Method: as §1, §2, §3, §4, §5, §6, §7, §8, §9, §10

DYRK1A = conditions: in Figure 3; cited from earlier work

## COC(=N)c1nc2cc3ncn(Cc4ccccc4)c(=O)c3cc2s1 [Compound 6b, Methyl 7-benzyl-8-oxo-7,8-dihydrothiazolo[5,4-g]quinazoline-2-carbimidate]
[1]
  IC50 at 48 h: 2 µM
Seven tumor cell lines
  IC50: 1 to 3 µM
[2]
  IC50 at 48 h: 1 µM

## COC(=N)c1nc2c(ccc3c(=O)n(Cc4ccccc4)cnc32)s1 [Compound 6c, Methyl 7-benzyl-6-oxo-6,7-dihydrothiazolo[5,4-h]quinazoline-2-carbimidate]
[1]
  IC50 at 48 h: 8 µM
Seven tumor cell lines
  IC50: 3 to 13 µM
[2]
  IC50 at 48 h: 13 µM

## COC(=N)c1nc2ccc3c(=O)n(Cc4ccccc4)cnc3c2s1 [Compound 6d, Methyl 7-benzyl-6-oxo-6,7-dihydrothiazolo[4,5-h]quinazoline-2-carbimidate]
[1]
  IC50 at 48 h: 10 µM
Seven tumor cell lines
  IC50: 2 to 11 µM
[2]
  IC50 at 48 h: 5 µM

## COC(=N)c1nc2ccc3ncnc(Nc4ccc(OC)cc4F)c3c2s1 [Compound II, methyl 9-[(2-fluoro-4-methoxyphenyl)amino]thiazolo[5,4-f]quinazoline-2-carbimidate, reference compound]
[1]
  IC50 at 48 h: 4 µM
DYRK1A
  IC50: 0.00036 µM
[2]
  IC50 at 48 h: 9 µM

## COC(=N)c1nc2cc3c(=O)n(Cc4ccccc4)cnc3cc2s1 [Compound 6a, Methyl 7-benzyl-8-oxo-7,8-dihydrothiazolo[4,5-g]quinazoline-2-carbimidate]
[1]
  IC50 at 48 h: 20 µM
Seven tumor cell lines
  IC50: 17 to 27 µM
[2]
  IC50 at 48 h: 19 µM

## COC(=N)c1nc2ccc3ncn(Cc4ccccc4)c(=O)c3c2s1 [Compound I, methyl 8-benzyl-9-oxo-8,9-dihydrothiazolo[5,4-f]quinazoline-2-carbimidate, reference compound]
[1]
  IC50 at 48 h: 20 µM
DYRK1A
  IC50: 0.3 µM
[2]
  IC50 at 48 h: 21 µM

## COC(=N)c1nc2cc3ncnc(Nc4ccc(OC)cc4F)c3cc2s1 [Compound 15b, Methyl 8-[(2-fluoro-4-methoxyphenyl)amino]thiazolo[5,4-g]quinazoline-2-carbimidate]
Seven tumor cell lines; 0.1-25 μM
  Cytotoxicity over the cell lines studied (in words): did not show detectable cytotoxicity
